{
  "source": "patent US10076505B2",
  "about": "“Inhalation formulations of Treprostinil” (priority 2003, dated 2018)",
  "key": {"sheep [1]": {"tested_on": "sheep", "assay": "Intravenous and aerosolized UT-15 dose response on baseline hemodynamics (Example IV)", "assay_type": "in vivo", "details": "baseline conditions; for PCV relative to baseline: any dose; for CO relative to baseline: any delivery rate; for PSYS: any rate", "experimental": "Six yearling sheep (3 males, 3 females; 21-37 kg) were fasted 18-24 hours and initially anesthetized with a short acting barbiturate (thiopental) to allow intubation of the sheep. Halothane gas anesthesia (1.5-2.5%) was then used for the surgical procedures. Via a left thoracotomy, a Transonic blood flow probe was placed around the main pulmonary artery, silastic catheters placed in the main pulmonary artery and left atrium. After approximately 7 days the sheep were reanesthetized and the left carotid artery cannulated, a Cordis Introducer Sheath inserted in the left jugular vein, and a tracheotomy made. The sheep were allowed to recover for another 3-5 days prior to experimentation. These sheep were used to allow measurement of pulmonary arterial pressure (PPA), left atrial pressure (PLA), central venous pressure (PCV), systemic arterial pressure (PSYS), heart rate (HR), and cardiac output (CO) after baseline measurements were made for a minimum of 30 minutes. Two separate experiments were conducted to determine the dose response effects of intravenously infused UT-15 on baseline hemodynamics and aerosolized UT-15 on baseline hemodynamics. For the infusion experimental protocol, after a 30 minute baseline was established, UT-15 was infused intravenously at 3 rates (250, 500 and 1000 ng per kg per min). In three sheep, the infusion rates lasted for 30 minutes each, and for the other three sheep, the infusions were for 60 minutes each. […] Again, three sheep were aerosolized for 30 minutes and the other three sheep were aerosolized for 60 minutes."}, "sheep [2]": {"tested_on": "sheep", "assay": "Intravenous and aerosolized UT-15 dose response during U44069 induced pulmonary hypertension (Example V)", "assay_type": "in vivo", "details": "for left atrial pressure: all three delivery rates", "from_the_text": "Sheep were used as the animal model of choice for these experiments for a number of reasons. First is the docile nature of sheep. They will stand quietly in metabolic cages without having to utilize tranquilizing drugs, which have the potential to complicate experimental results. Second, sheep are large enough to allow direct measurement of CO, PPA, PLA, PCV, and PSYS. Sheep are also large enough to allow direct aerosolization of substances into the lung via trachoestomy thereby preventing swallowing of drugs and thus eliminating a possible secondary route of administration of UT-15. Third, sheep can tolerate a great amount of instrumentation with little or no discomfort. Fourth, sheep have been utilized for several years as an animal model of pulmonary arterial hypertension and thus, there is a great amount of historical data with which to compare the results. […] The reasons for using U44069 are that it is a very potent pulmonary vasoconstrictor, its characteristics are very similar to endogenously formed thromboxane A2, and it can be titrated to induce the desired degree of pulmonary vasoconstriction. U44069 was mixed with sterile normal saline immediately prior to being used and was protected from light by wrapping the solution with aluminum foil. The concentration of U44069 was adjusted such that a minimal flow rate of 0.8 ml per min was being infused into the sheep. This was done because more concentrated U44069 would have to be infused at very low rates and often causes “pulses” of U44069 due to the infusion characteristics of roller pumps. The U44069 pulses cause vasoconstriction “spikes” and thus would create induce a non-steady-state. Six yearling sheep (3 males, 3 females; 21-37 kg) were fasted 18-24 hours and initially anesthetized with a short acting barbiturate (thiopental) to allow intubation of the sheep. Halothane gas anesthesia (1.5-2.5%) was then used for the surgical procedures. Via a left thoracotomy, a Transonic blood flow probe was placed around the main pulmonary artery, silastic catheters placed in the main pulmonary artery and left atrium. After approximately 7 days the sheep were reanesthetized and the left carotid artery cannulated, a Cordis Introducer Sheath inserted in the left jugular vein, and a tracheotomy made. The sheep were allowed to recover for another 3-5 days prior to experimentation. These sheep were used to allow measurement of pulmonary arterial pressure (PPA), left atrial pressure (PLA), central venous pressure (PCV), systemic arterial pressure (PSYS), heart rate (HR), and cardiac output (CO) after baseline measurements were made for a minimum of 30 minutes. Two separate experiments were conducted to determine the dose response effects of intravenously infused UT-15 and aerosolized UT-15 during U44069 induced pulmonary hypertension. After a 30 minute baseline was established, U44069 was infused intravenously at a rate of 1 ng per kg per min. For the intravenous administration of UT-15 and after allowing the sheep to achieve a steady-state for 30-60 minutes, a dose-response to intravenous UT-15 was similar to that set forth in Example IV. For the aerosolized administration of UT-15 and after allowing the sheep to achieve a steady-state for 30-60 minutes, a dose-response to intravenous UT-15 was similar to that set forth in Example IV. In each experimental protocol, UT-15 was administered to three sheep for 30 minutes and to the other three sheep for 60 minutes."}, "digital ischemic lesions": {"tested_on": "digital ischemic lesions", "assay": "Study of Treprostinil for digital ischemic lesions in patients with systemic sclerosis (Example VIII)", "assay_type": "in vivo, human", "experimental": "This study involved 12 subjects with diffuse or limited scleroderma with at least one DIL that had been present for 2 months or more (Table 1). Subjects who completed the study were treated for 12 weeks with Treprostinil and followed for another 8 weeks after drug discontinuation (FIG. 1). […] Assessments were performed at baseline, weeks 2, 6, 12, 16, and 20. At each visit, the largest (target) lesion and other prominent DIL were measured by recording the largest diameter of the lesions. DIL were counted and photographed. Patient and physician global assessment of ulcers as well as patient assessment of disability from DIL were measured using visual analogue scales (VAS) at each visit."}, "[3]": {"details": "during U44069 infusion, aerosol"}, "[4]": {"details": "during U44069 infusion, aerosolized"}, "[5]": {"details": "during U44069 infusion, intravascular"}, "[6]": {"details": "during U44069 infusion, intravenous"}},
  "data": [
    {"smiles": "CCCCC[C@H](O)CC[C@@H]1[C@H]2Cc3cccc(OCC(=O)O)c3C[C@H]2C[C@H]1O", "note": "[UT-15, 9-deoxy-2′,9-alpha-methano-3-oxa-4,5,6-trinor-3,7-(1′,3′-interphenylene)-13,14-dihydro-prostaglandin F1]", "values": [
      {"measurement": "PCV relative to baseline", "setting": "sheep [1]; aerosol", "result": "no statistical difference"},
      {"measurement": "PLA relative to baseline", "setting": "sheep [1]; aerosolized (mean values increased)", "result": "neither intravenous nor aerosolized UT-15 caused PLA to significantly change"},
      {"measurement": "heart rate", "setting": "sheep [1]; aerosolized, 3 rates", "result": "no effect"},
      {"measurement": "pulmonary vascular driving pressure (PPA minus PLA) change from baseline", "setting": "sheep [1]; aerosolized, 250, 500, and 100 ng per kg per min", "result": "significant"},
      {"measurement": "PVR", "setting": "sheep [1]; aerosolized, all 3 delivery rates", "result": "significant decrease"},
      {"measurement": "CO relative to baseline", "setting": "sheep [1]; aerosolized", "result": "no significant changes"},
      {"measurement": "PSYS", "setting": "sheep [1]; aerosolized", "result": "no significant effect"},
      {"measurement": "PPA relative to baseline", "setting": "sheep [1]; aerosolized, not statistically different", "result": "general trend for PPA to decrease"},
      {"measurement": "PVR", "setting": "sheep [1]; intravenous", "result": "no significant effect"},
      {"measurement": "heart rate", "setting": "sheep [1]; intravenous 250, 500 and 1000 ng per kg per min", "result": "significantly increased"},
      {"measurement": "PLA relative to baseline", "setting": "sheep [1]; intravenous (mean values decreased)", "result": "neither intravenous nor aerosolized UT-15 caused PLA to significantly change"},
      {"measurement": "CO relative to baseline", "setting": "sheep [1]; intravenous", "result": "no significant changes"},
      {"measurement": "PCV relative to baseline", "setting": "sheep [1]; intravenous", "result": "no statistical difference"},
      {"measurement": "PSYS", "setting": "sheep [1]; intravenous", "result": "no significant effect"},
      {"measurement": "PPA relative to baseline", "setting": "sheep [1]; intravenous, same as PCV (no statistical difference)", "result": "The same effects were also observed"},
      {"measurement": "cardiac output", "setting": "sheep [2]; [3]", "result": "no effect"},
      {"measurement": "time at which UT-15 began to attenuate the increase in PVR", "setting": "sheep [2]; [3]", "result": "4 to 5", "unit": "min"},
      {"measurement": "left atrial pressure", "setting": "sheep [2]; [3]", "result": "increased above baseline"},
      {"measurement": "heart rate", "setting": "sheep [2]; [4]", "result": "no effect"},
      {"measurement": "off response (PVR)", "setting": "sheep [2]; [4]", "result": 43, "unit": "min"},
      {"measurement": "systemic arterial pressure", "setting": "sheep [2]; [4]", "result": "no statistical differences"},
      {"measurement": "PPA", "setting": "sheep [2]; during U44069 infusion, aerosolized, 500 and 1000 ng per kg per min", "result": "back to normal values"},
      {"measurement": "PVR relative to baseline PVR", "setting": "sheep [2]; during U44069 infusion, aerosolized, any of the three delivery rates", "result": "no significant difference"},
      {"measurement": "PPA relative to U44069 value", "setting": "sheep [2]; [5]", "result": "decrease significantly"},
      {"measurement": "pulmonary vascular driving pressure (PPA-PLA)", "setting": "sheep [2]; [5]", "result": "unchanged"},
      {"measurement": "off response (PVR)", "setting": "sheep [2]; [6]", "result": 12, "unit": "min"},
      {"measurement": "systemic arterial pressure", "setting": "sheep [2]; [6]", "result": "no statistical differences"},
      {"measurement": "time at which UT-15 began to attenuate the increase in PVR", "setting": "sheep [2]; [6]", "result": "4 to 5", "unit": "min"},
      {"measurement": "central venous pressure", "setting": "sheep [2]; during U44069 infusion, intravenous, 500 and 1000 ng per kg per min", "result": "different from the U44069 values"},
      {"measurement": "heart rate", "setting": "sheep [2]; during U44069 infusion, intravenous, 500 and 1000 ng per kg per min different from U44069 values", "result": "increase above the values during U44069 conditions"},
      {"measurement": "cardiac output", "setting": "sheep [2]; during U44069 infusion, intravenous, significant at 500 and 100 ng per kg per min", "result": "dose-response increase"},
      {"measurement": "left atrial pressure", "setting": "sheep [2]; during U44069 infusion, intravenously infused", "result": "significant decrease from the U44069 value"},
      {"measurement": "U44069-induced increase in PVR", "setting": "sheep [2]; intravenously infused, 500 and 1000 ng per kg per min", "result": "significantly attenuated"},
      {"measurement": "physician global assessment of DIL severity, average improvement", "setting": "digital ischemic lesions; after 12 weeks of therapy", "result": 60, "unit": "%"},
      {"measurement": "patients who developed new ulcers during the 8-week follow-up period after drug discontinuation", "setting": "digital ischemic lesions; after drug discontinuation", "result": "two of three"},
      {"measurement": "new ulcers while receiving continuous therapy", "setting": "digital ischemic lesions; any patients", "result": "No new ulcers"},
      {"measurement": "subjective measures of severity of DIL (patient and physician global assessment, DIL disability VAS)", "setting": "digital ischemic lesions; by week 6, all five subjects", "result": "marked improvements"},
      {"measurement": "DIL disability VAS score, average improvement", "setting": "digital ischemic lesions; by week 12", "result": 77, "unit": "%"},
      {"measurement": "patient global assessment, average improvement", "setting": "digital ischemic lesions; by week 12", "result": 89, "unit": "%"},
      {"measurement": "average decrease in the size of baseline DIL", "setting": "digital ischemic lesions; continuous sc infusion, 12 weeks", "result": 65, "unit": "%"},
      {"measurement": "target lesions", "setting": "digital ischemic lesions; four subjects who completed 12 weeks of active therapy, sc infusion up to 15 ng/kg/min", "result": "improved in all patients"},
      {"measurement": "subjects unable to complete the study due to intolerable injection site pain", "setting": "digital ischemic lesions; of 12 subjects", "result": "five"},
      {"measurement": "subjects with complete resolution of their target lesions", "setting": "digital ischemic lesions; of the four subjects who completed 12 weeks", "result": "three"}
    ]}
  ]
}
